Assay results published in ChEMBL document CHEMBL1201862, “PubChem BioAssay data set” (2004).
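Where inhibition never reached the appropriate level, the endpoint shown equals the highest concentration tested. Otherwise, values were interpolated linearly from a five-concentration, 48-hour dose response in 96-well plates. GI50 = concentration required for 50% inhibition of growth.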 The source made the active and inactive calls. Rule as the data show it: active = GI50 up to about 1.1 µM and inactive = higher.

Assays:
Test in all cases: NCI tumour cell line growth inhibition, 48 h
NCI-H522 = test system: NCI-H522
Hs-578T = test system: Hs-578T
M14 = test system: M14
COLO 205 = test system: COLO 205
SK-MEL-2 = test system: SK-MEL-2
HCT-15 = test system: HCT-15
UACC-257 = test system: UACC-257
NCI-H23 = test system: NCI-H23
MDA-MB-435 = test system: MDA-MB-435
786-0 = test system: 786-0
NCI-H460 = test system: NCI-H460
RXF 393 = test system: RXF 393
MOLT-4 = test system: MOLT-4
SW-620 = test system: SW-620
HOP-62 = test system: HOP-62
HCT-116 = test system: HCT-116
SNB-19 = test system: SNB-19
UO-31 = test system: UO-31
HOP-92 = test system: HOP-92
U-251 = test system: U-251
ACHN = test system: ACHN
TK-10 = test system: TK-10
LOX IMVI = test system: LOX IMVI
DU-145 = test system: DU-145
SN12C = test system: SN12C
OVCAR-8 = test system: OVCAR-8
OVCAR-4 = test system: OVCAR-4
BT-549 = test system: BT-549
IGROV-1 = test system: IGROV-1
OVCAR-3 = test system: OVCAR-3
MCF7 = test system: MCF7
SF-539 = test system: SF-539
NCI-H226 = test system: NCI-H226
NCI/ADR-RES = test system: NCI/ADR-RES
SF-295 = test system: SF-295
SF-268 = test system: SF-268
HL-60 = test system: HL-60
MDA-MB-231 = test system: MDA-MB-231
Malme-3M = test system: Malme-3M
KM12 = test system: KM12
PC-3 = test system: PC-3
SK-MEL-28 = test system: SK-MEL-28
HT-29 = test system: HT-29
SR = test system: SR
OVCAR-5 = test system: OVCAR-5
K562 = test system: K562
EKVX = test system: EKVX
SK-OV-3 = test system: SK-OV-3
UACC-62 = test system: UACC-62
A549 = test system: A549
SK-MEL-5 = test system: SK-MEL-5
T47D = test system: T47D
SNB-75 = test system: SNB-75
CCRF-CEM = test system: CCRF-CEM
CAKI-1 = test system: CAKI-1
RPMI-8226 = test system: RPMI-8226
MDA-N = test system: MDA-N
HCC 2998 = test system: HCC 2998

COc1cc2c(cc1OCCCOc1cc3c(cc1OC)C(=O)N1CCC[C@H]1CN3)N=C[C@@H]1CCCN1C2=O
GI50 (NCI-H522): < 0.0127 µM (active)
GI50 (Hs-578T): 0.267 µM (active)
GI50 (M14): 0.0753 µM (active)
GI50 (COLO 205): 0.108 µM (active)
GI50 (SK-MEL-2): 0.0977 µM (active)
GI50 (HCT-15): 1.86 µM
GI50 (UACC-257): 0.206 µM (active)
GI50 (NCI-H23): 0.158 µM (active)
GI50 (MDA-MB-435): 0.117 µM (active)
GI50 (786-0): 0.0656 µM (active)
GI50 (NCI-H460): 0.228 µM (active)
GI50 (RXF 393): 0.0497 µM (active)
GI50 (MOLT-4): 0.011 µM (active)
GI50 (SW-620): 0.127 µM (active)
GI50 (HOP-62): 0.0317 µM (active)
GI50 (HCT-116): 0.124 µM (active)
GI50 (SNB-19): 0.0869 µM (active)
GI50 (UO-31): 2.17 µM (inactive)
GI50 (HOP-92): 0.145 µM (active)
GI50 (U-251): 0.0189 µM (active)
GI50 (ACHN): 0.0986 µM (active)
GI50 (TK-10): 0.163 µM (active)
GI50 (LOX IMVI): 0.0371 µM (active)
GI50 (DU-145): 0.357 µM (active)
GI50 (SN12C): 0.189 µM (active)
GI50 (OVCAR-8): 0.232 µM (active)
GI50 (OVCAR-4): 0.67 µM (active)
GI50 (BT-549): 0.0802 µM (active)
GI50 (IGROV-1): 0.201 µM (active)
GI50 (OVCAR-3): 0.0929 µM (active)
GI50 (MCF7): < 0.0391 µM (active)
GI50 (SF-539): 0.024 µM (active)
GI50 (NCI-H226): 0.0782 µM (active)
GI50 (NCI/ADR-RES): 3.11 µM (inactive)
GI50 (SF-295): 0.123 µM (active)
GI50 (SF-268): 0.0234 µM (active)
GI50 (HL-60): 0.0291 µM (active)
GI50 (MDA-MB-231): 0.145 µM (active)
GI50 (Malme-3M): 0.115 µM (active)
GI50 (KM12): 0.0893 µM (active)
GI50 (PC-3): 0.279 µM (active)
GI50 (SK-MEL-28): 0.202 µM (active)
GI50 (HT-29): 0.244 µM (active)
GI50 (SR): < 0.01 µM (active)
GI50 (OVCAR-5): 0.182 µM (active)
GI50 (K562): 0.0482 µM (active)
GI50 (EKVX): 1.89 µM (inactive)
GI50 (SK-OV-3): 0.54 µM (active)
GI50 (UACC-62): 0.1 µM (active)
GI50 (A549): 0.7 µM (active)
GI50 (SK-MEL-5): 0.126 µM (active)
GI50 (T47D): 0.0309 µM (active)
GI50 (SNB-75): 0.179 µM (active)
GI50 (CCRF-CEM): < 0.01 µM (active)
GI50 (CAKI-1): 0.324 µM (active)

CCCC[S+]([O-])CCC(N)P(=O)(O)O (configuration not stated)
GI50 (NCI-H522): > 100 µM (inactive)
GI50 (Hs-578T): > 100 µM (inactive)
GI50 (M14): > 100 µM (inactive)
GI50 (COLO 205): > 100 µM (inactive)
GI50 (SK-MEL-2): > 100 µM (inactive)
GI50 (RPMI-8226): > 100 µM (inactive)
GI50 (HCT-15): > 100 µM
GI50 (UACC-257): > 100 µM (inactive)
GI50 (NCI-H23): > 100 µM (inactive)
GI50 (MDA-MB-435): > 100 µM (inactive)
GI50 (786-0): > 100 µM (inactive)
GI50 (NCI-H460): > 100 µM (inactive)
GI50 (MOLT-4): > 100 µM (inactive)
GI50 (SW-620): > 100 µM (inactive)
GI50 (HOP-62): > 100 µM (inactive)
GI50 (HCT-116): > 100 µM (inactive)
GI50 (SNB-19): > 100 µM (inactive)
GI50 (UO-31): > 100 µM (inactive)
GI50 (HOP-92): > 100 µM (inactive)
GI50 (U-251): > 100 µM (inactive)
GI50 (ACHN): > 100 µM (inactive)
GI50 (TK-10): > 100 µM (inactive)
GI50 (LOX IMVI): > 100 µM (inactive)
GI50 (DU-145): > 100 µM (inactive)
GI50 (SN12C): > 100 µM (inactive)
GI50 (OVCAR-8): > 100 µM (inactive)
GI50 (OVCAR-4): > 100 µM (inactive)
GI50 (BT-549): > 100 µM (inactive)
GI50 (IGROV-1): > 100 µM (inactive)
GI50 (OVCAR-3): > 100 µM (inactive)
GI50 (MCF7): > 100 µM (inactive)
GI50 (NCI-H226): > 100 µM (inactive)
GI50 (NCI/ADR-RES): > 100 µM (inactive)
GI50 (SF-295): > 100 µM (inactive)
GI50 (SF-268): > 100 µM (inactive)
GI50 (HL-60): > 100 µM (inactive)
GI50 (Malme-3M): > 100 µM (inactive)
GI50 (KM12): > 100 µM (inactive)
GI50 (PC-3): > 100 µM (inactive)
GI50 (SK-MEL-28): > 100 µM (inactive)
GI50 (HT-29): > 100 µM (inactive)
GI50 (SR): > 100 µM (inactive)
GI50 (OVCAR-5): > 100 µM (inactive)
GI50 (K562): > 100 µM (inactive)
GI50 (MDA-N): > 100 µM (inactive)
GI50 (EKVX): > 100 µM (inactive)
GI50 (SK-OV-3): > 100 µM (inactive)
GI50 (UACC-62): > 100 µM (inactive)
GI50 (A549): > 100 µM (inactive)
GI50 (SK-MEL-5): > 100 µM (inactive)
GI50 (T47D): > 100 µM (inactive)
GI50 (SNB-75): > 100 µM (inactive)
GI50 (CCRF-CEM): > 100 µM (inactive)
GI50 (CAKI-1): > 100 µM (inactive)

Oc1ccc(Oc2cc3c(cc2Oc2ccc(O)cc2)-c2nc-3nc3[nH]c(nc4nc(nc5[nH]c(n2)c2cc(Oc6ccc(O)cc6)c(Oc6ccc(O)cc6)cc52)-c2cc(Oc5ccc(O)cc5)c(Oc5ccc(O)cc5)cc2-4)c2cc(Oc4ccc(O)cc4)c(Oc4ccc(O)cc4)cc32)cc1
GI50 (NCI-H522): > 100 µM (inactive)
GI50 (Hs-578T): > 100 µM (inactive)
GI50 (M14): 16.7 µM (inactive)
GI50 (COLO 205): > 100 µM (inactive)
GI50 (HCT-15): > 100 µM
GI50 (UACC-257): > 100 µM (inactive)
GI50 (NCI-H23): > 100 µM (inactive)
GI50 (MDA-MB-435): > 100 µM (inactive)
GI50 (786-0): > 100 µM (inactive)
GI50 (NCI-H460): > 100 µM (inactive)
GI50 (MOLT-4): > 100 µM (inactive)
GI50 (SW-620): > 100 µM (inactive)
GI50 (HOP-62): > 100 µM (inactive)
GI50 (HCT-116): > 100 µM (inactive)
GI50 (SNB-19): > 100 µM (inactive)
GI50 (UO-31): > 100 µM (inactive)
GI50 (HOP-92): > 100 µM (inactive)
GI50 (U-251): > 100 µM (inactive)
GI50 (ACHN): > 100 µM (inactive)
GI50 (TK-10): > 100 µM (inactive)
GI50 (LOX IMVI): 39.9 µM (inactive)
GI50 (SN12C): > 100 µM (inactive)
GI50 (OVCAR-8): > 100 µM (inactive)
GI50 (OVCAR-4): 35.7 µM (inactive)
GI50 (BT-549): > 100 µM (inactive)
GI50 (IGROV-1): > 100 µM (inactive)
GI50 (OVCAR-3): > 100 µM (inactive)
GI50 (MCF7): > 100 µM (inactive)
GI50 (SF-539): > 100 µM (inactive)
GI50 (NCI-H226): > 100 µM (inactive)
GI50 (NCI/ADR-RES): > 100 µM (inactive)
GI50 (SF-295): 37.8 µM (inactive)
GI50 (SF-268): > 100 µM (inactive)
GI50 (MDA-MB-231): 23.5 µM (inactive)
GI50 (Malme-3M): 19.1 µM (inactive)
GI50 (KM12): > 100 µM (inactive)
GI50 (PC-3): > 100 µM (inactive)
GI50 (SK-MEL-28): > 100 µM (inactive)
GI50 (HT-29): > 100 µM (inactive)
GI50 (SR): > 100 µM (inactive)
GI50 (OVCAR-5): 85.5 µM (inactive)
GI50 (K562): > 100 µM (inactive)
GI50 (MDA-N): > 100 µM (inactive)
GI50 (EKVX): > 100 µM (inactive)
GI50 (SK-OV-3): > 100 µM (inactive)
GI50 (UACC-62): 76 µM (inactive)
GI50 (HCC 2998): > 100 µM (inactive)
GI50 (A549): > 100 µM (inactive)
GI50 (SK-MEL-5): 60.1 µM (inactive)
GI50 (T47D): > 100 µM (inactive)
GI50 (SNB-75): > 100 µM (inactive)
GI50 (CCRF-CEM): > 100 µM (inactive)
GI50 (CAKI-1): > 100 µM (inactive)
